For the test, the target named is MetAP-2 (Homo sapiens, UniProt P50579). The test is described as follows: MetAP-2 activity measurement (coupled enzymatic reactions, substrate Met-Arg-Ser). The following applies: Inhibition of MetAP-2; read-out: IC50 enzyme. It counts as biochemical. On the procedure:
MetAP-2 Activity Measurement
The MetAP-2 activity is determined by coupling enzymatic reactions. The tripeptide Met-Arg-Ser (MAS) is employed as substrate. The methionine liberated is firstly converted into Metox and H2O2 by L-aminooxidase (AAO).
MetAP-2 activity can be recorded continuously as kinetics. The reaction scheme illustrates that one mol of dianisidineox is formed per mol of methionene. The MetAP-2 enzyme activity can therefore be calculated directly as Δ absorption per time unit. […] of the MetAP-2 activity (mol of Met/time unit) is possible with the aid of the dianisidineox extinction coefficient.
The change in extinction per time unit is depicted graphically and a slope calculation is carried out in the visually linear region of the reaction.

Bounds are passed on as bounds.

In general, IC50 refers to the concentration needed to halve the response being measured.

MetAP-2, sequence (P50579 whole entry, species assumed): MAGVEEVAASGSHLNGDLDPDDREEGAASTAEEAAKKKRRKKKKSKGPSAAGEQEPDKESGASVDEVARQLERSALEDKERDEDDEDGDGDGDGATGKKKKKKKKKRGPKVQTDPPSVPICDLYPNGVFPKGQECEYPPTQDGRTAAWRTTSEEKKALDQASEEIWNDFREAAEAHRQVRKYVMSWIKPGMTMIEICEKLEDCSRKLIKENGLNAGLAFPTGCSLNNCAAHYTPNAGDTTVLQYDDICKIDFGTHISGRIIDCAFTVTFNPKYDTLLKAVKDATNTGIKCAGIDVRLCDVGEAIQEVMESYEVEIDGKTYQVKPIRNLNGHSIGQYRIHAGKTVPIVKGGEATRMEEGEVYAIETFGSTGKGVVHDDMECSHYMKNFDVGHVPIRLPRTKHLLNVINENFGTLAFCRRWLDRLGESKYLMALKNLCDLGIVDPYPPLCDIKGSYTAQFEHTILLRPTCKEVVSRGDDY

`O=C(NCc1cccc(Br)c1)[C@@]1(O)CCN(c2ccccc2)C1=O` [A1]: the IC50 fell in the range of 10 to 1000 nM.
For the compound `CC(C)(C)c1cnc(CCNC(=O)[C@@]2(O)CCN(c3ccccc3)C2=O)o1` [A2], the IC50 is over 10000 nM.
In the case of `CCc1nnn(CCNC(=O)[C@@]2(O)CCN(c3ccccc3)C2=O)n1` [A3], the IC50 lay in the range of 1000 to 10000 nM.
The result for `O=C(NCc1cccc(OC(F)F)c1)[C@@]1(O)CCN(c2ccccc2)C1=O` [A6] reads 1000 to 10000 nM.
With `O=C(NCc1cccc(OC(F)(F)F)c1)[C@@]1(O)CCN(c2ccccc2)C1=O` [A8] the figure was 1000 to 10000 nM; with `Cc1nccn1-c1cccc(CNC(=O)[C@@]2(O)CCN(c3ccccc3)C2=O)c1` [A9], 1000 to 10000 nM; with `CC(C)(C)c1nc(CCNC(=O)[C@@]2(O)CCN(c3ccccc3)C2=O)no1` [A10], over 10000 nM.
With `O=C(NCCc1noc(C2CCCC2)n1)[C@@]1(O)CCN(c2ccccc2)C1=O` [A12] the figure was over 10000 nM; with `CCc1nnnn1CCNC(=O)[C@@]1(O)CCN(c2ccccc2)C1=O` [A13], over 10000 nM; with `Cc1nnc(CCNC(=O)[C@@]2(O)CCN(c3ccccc3)C2=O)s1` [A14], over 10000 nM.
Consider `O=C(NCCc1nnc(C(F)(F)F)o1)[C@@]1(O)CCN(c2ccccc2)C1=O` [A15], for which the IC50 is over 10000 nM.
For the compound `Cc1nc(CCNC(=O)[C@@]2(O)CCN(c3ccccc3)C2=O)cs1` [A16], the IC50 fell in the range of 1000 to 10000 nM.
Turning to `O=C(NCCc1nccs1)[C@@]1(O)CCN(c2ccccc2)C1=O` [A17], the IC50 was in the range of 10 to 1000 nM.
For `Cc1ccn(CCNC(=O)[C@@]2(O)CCN(c3ccccc3)C2=O)n1` [A19], the IC50 is 1000 to 10000 nM.
The result for `O=C(NCc1cccc(Cl)c1F)[C@@]1(O)CCN(c2ccccc2)C1=O` [A20] reads 10 to 1000 nM; that for `O=C(NCc1c(F)ccc(Cl)c1F)[C@@]1(O)CCN(c2ccccc2)C1=O` [A21], 10 to 1000 nM; that for `O=C(NCc1cc(Br)ccc1F)[C@@]1(O)CCN(c2ccccc2)C1=O` [A22], 10 to 1000 nM.
For the compound `O=C(NCc1ccc(F)c(Br)c1)[C@@]1(O)CCN(c2ccccc2)C1=O` [A23], the IC50 lay in the range of 10 to 1000 nM.
With `O=C(NCc1cccnc1)[C@@]1(O)CCN(c2ccccc2)C1=O` [A24] the figure was 1000 to 10000 nM; with `O=C(NCc1cccc(N2CCCC2)n1)[C@@]1(O)CCN(c2ccccc2)C1=O` [A25], over 10000 nM; with `O=C(NCc1ccccn1)[C@@]1(O)CCN(c2ccccc2)C1=O` [A26], over 10000 nM.
The result for `O=C(NCc1cccc(C(F)(F)F)c1)[C@@]1(O)CCN(c2ccccc2)C1=O` [A28] reads 10 to 1000 nM.
With `O=C(NCc1cccc(Br)c1)[C@@]1(O)CCN(c2ccc(Br)cc2)C1=O` [A29] the figure was 10 to 1000 nM; with `O=C(NCCc1cccs1)[C@@]1(O)CCN(c2ccc(Br)cc2)C1=O` [A30], 10 to 1000 nM.
For the compound `O=C(NCCc1cccs1)[C@@]1(O)CCN(c2ccc(F)cc2F)C1=O` [A31], the IC50 fell in the range of 10 to 1000 nM.
Consider `O=C(NCCc1cccs1)[C@@]1(O)CCN(c2ccc(F)cc2)C1=O` [A32], for which the IC50 lay in the range of 10 to 1000 nM.
With `CC(C)(C)c1noc(CCNC(=O)[C@@]2(O)CCN(c3ccccc3)C2=O)n1` [A34] the figure was over 10000 nM; with `CCc1nnc(CCNC(=O)[C@@]2(O)CCN(c3ccccc3)C2=O)s1` [A35], over 10000 nM; with `O=C(NCc1cccc(-c2nccs2)c1)[C@@]1(O)CCN(c2ccccc2)C1=O` [A36], 1000 to 10000 nM.
With `O=C(NCCc1cccs1)[C@@]1(O)CCN(c2cccc(Cl)c2)C1=O` [A37, (S)-1-(3-chlorophenyl)-3-hydroxy-2-oxopyrrolidine-3-carboxylic acid (2-thiophen-2-ylethyl)amide] the figure was 10 to 1000 nM.
As to `O=C(NCc1cccc(Br)c1)[C@@]1(O)CCN(c2ccc(F)cc2)C1=O` [A38], the IC50 was 10 to 1000 nM.
With `O=C(NCc1cccc(Br)c1)[C@@]1(Cl)CCN(c2ccccc2)C1=O` [A39] the figure was over 10000 nM; with `O=C(NCCc1cccs1)[C@]1(O)CCN(c2cccc(Cl)c2)C1=O` [A40], 10 to 1000 nM.
The result for `O=C(NCc1cccc(Br)c1)[C@]1(O)CCN(c2ccc(F)cc2)C1=O` [A41] reads 1000 to 10000 nM; that for `CCc1nnn(CCNC(=O)[C@]2(O)CCN(c3ccccc3)C2=O)n1` [A42], over 10000 nM; that for `O=C(NCc1cccc(Br)c1)[C@]1(Cl)CCN(c2ccccc2)C1=O` [A43], over 10000 nM.
With `O=C(NCCn1cccn1)[C@@]1(O)CCN(c2ccccc2)C1=O` [A44] the figure was 1000 to 10000 nM; with `O=C(NCCN1CCCC1)[C@@]1(O)CCN(c2ccccc2)C1=O` [A45], over 10000 nM; with `O=C(NCc1ccc(F)c(Cl)c1F)[C@@]1(O)CCN(c2ccccc2)C1=O` [A46], 10 to 1000 nM.
Take `O=C(NCc1ccc(F)c(Cl)c1)[C@@]1(O)CCN(c2ccccc2)C1=O` [A47]: the IC50 was in the range of 10 to 1000 nM.
With `O=C(NCc1cc(Cl)ccc1F)[C@@]1(O)CCN(c2ccccc2)C1=O` [A49] the figure was 10 to 1000 nM.
With `O=C(NCc1cccc(Br)c1)[C@@]1(O)CCN(c2ccc(F)c(Cl)c2)C1=O` [A50] the figure was 10 to 1000 nM; with `O=C(NCCc1cccs1)[C@@]1(O)CCN(c2ccc(F)c(Cl)c2)C1=O` [A51], 10 to 1000 nM; with `O=C(NCc1cccc(Br)c1)[C@@]1(O)CCN(c2ccc(F)cc2F)C1=O` [A52], 10 to 1000 nM.
The result for `O=C(NCc1cccc(Br)c1)[C@]1(O)CCN(c2cccc3ccccc23)C1=O` [A53] reads over 10000 nM; that for `O=C(NCc1cccc(Br)c1)[C@@]1(O)CCN(c2ccc3ccccc3c2)C1=O` [A54], 10 to 1000 nM; that for `O=C(NCCc1cccs1)[C@@]1(O)CCN(c2ccc3ccccc3c2)C1=O` [A55], 10 to 1000 nM.
`O=C(NCc1cccc(Cl)c1F)[C@@]1(O)CCN(c2ccc(F)c(Cl)c2)C1=O` [A56]: the IC50 was 10 to 1000 nM.
With `O=C(NCc1cccc(Cl)c1F)[C@@]1(O)CCN(c2cccc(Cl)c2)C1=O` [A57] the figure was 10 to 1000 nM; with `O=C(NCc1cccc(Cl)c1F)[C@@]1(O)CCN(c2ccc(F)cc2)C1=O` [A58], 10 to 1000 nM.
In the case of `O=C(NCc1nc2ccccc2s1)[C@@]1(O)CCN(c2ccccc2)C1=O` [A60], the concentration for half-maximal inhibition (IC50) is over 10000 nM.
With `O=C(NCCc1cccs1)[C@@]1(Cl)CCN(c2ccccc2)C1=O` [A61] the figure was over 10000 nM.
With `O=C(NCc1ccco1)[C@@]1(O)CCN(c2ccccc2)C1=O` [A62] the figure was 10 to 1000 nM; with `CC(C)CCNC(=O)C1(O)CCN(c2ccccc2)C1=O` (stereo not drawn) [A63], 10 to 1000 nM.
With `O=C(NCc1ccco1)C1(O)CCN(c2ccccc2)C1=O` (stereo not drawn) [A64] the figure was 1000 to 10000 nM.
In the case of `O=C(NCc1cccc(Cl)c1F)[C@]1(O)CCN(c2ccc(F)cc2)C1=O` [A67], the IC50 lay within 1000 to 10000 nM.
With `O=C(NCc1cccc(Cl)c1F)[C@]1(O)CCN(c2cccc(Cl)c2)C1=O` [A68] the figure was 1000 to 10000 nM.
In the case of `O=C(NCCc1cccs1)[C@]1(O)CCN(c2ccc3ccccc3c2)C1=O` [A69], the IC50 is 10 to 1000 nM.
With `O=C(NCc1cccc(Br)c1)[C@]1(O)CCN(c2ccc3ccccc3c2)C1=O` [A70] the figure was over 10000 nM; with `O=C(NCc1cccc(Br)c1)[C@@]1(O)CCN(c2cccc3ccccc23)C1=O` [A71], 10 to 1000 nM.
For `O=C(NCc1cccc(Br)c1)[C@]1(O)CCN(c2ccc(F)cc2F)C1=O` [A72], the IC50 is over 10000 nM.
As to `O=C(NCc1cccc(Br)c1)[C@]1(O)CCN(c2ccc(F)c(Cl)c2)C1=O` [A73], the IC50 fell in the range of 1000 to 10000 nM.
As to `O=C(NCc1ccc(F)c(Cl)c1)[C@]1(O)CCN(c2ccccc2)C1=O` [A74], the IC50 is over 10000 nM.
The result for `O=C(NCc1cccc(Br)c1)[C@]1(O)CCN(c2ccc(Br)cc2)C1=O` [A76] reads over 10000 nM; that for `O=C(NCCc1cccs1)[C@]1(O)CCN(c2ccc(Br)cc2)C1=O` [A77], 1000 to 10000 nM.
With `O=C(NCCc1cccs1)[C@]1(O)CCN(c2ccc(F)cc2)C1=O` [A78], the IC50 was in the range of 1000 to 10000 nM.
The result for `O=C(NCc1cccc(Br)c1)[C@]1(O)CCN(c2ccccc2)C1=O` [A79] reads over 10000 nM.
With `O=C(NCc1cc(F)cc(C(F)(F)F)c1)[C@@]1(O)CCN(c2ccc(F)cc2)C1=O` [A162] the figure was 10 to 1000 nM; with `O=C(NCc1cc(C(F)(F)F)cc(C(F)(F)F)c1)[C@@]1(O)CCN(c2ccc(F)cc2)C1=O` [A163], over 10000 nM; with `O=C(NCc1cc(F)cc(C(F)(F)F)c1)[C@@]1(O)CCN(c2ccccc2)C1=O` [A164], 10 to 1000 nM.
The result for `O=C(NCc1cc(C(F)(F)F)cc(C(F)(F)F)c1)[C@@]1(O)CCN(c2ccccc2)C1=O` [A165] reads over 10000 nM.
For `Cn1cc(N2CC[C@](O)(C(=O)NCc3cccc(Cl)c3F)C2=O)cn1` [A170], the IC50 was 10 to 1000 nM.
With `COCCN1CC[C@](O)(C(=O)NCc2cc(F)cc(F)c2)C1=O` [A171] the figure was 1000 to 10000 nM.
The result for `O=C(NCc1cc(F)cc(Cl)c1)[C@@]1(O)CCN(C2CCCCC2)C1=O` [A173] reads 10 to 1000 nM; that for `Cc1ccc(N2CC[C@](O)(C(=O)NCc3cc(F)cc(Cl)c3)C2=O)cn1` [A181], 10 to 1000 nM; that for `CC(C)n1cc(N2CC[C@](O)(C(=O)NCc3cccc(Cl)c3F)C2=O)cn1` [A200], 10 to 1000 nM.
With `CCn1cc(N2CC[C@](O)(C(=O)NCc3cc(F)cc(F)c3)C2=O)cn1` [A211] the figure was 10 to 1000 nM; with `N#Cc1cccc(CNC(=O)[C@@]2(O)CCN(c3ccccc3)C2=O)c1` [A215], 10 to 1000 nM; with `O=C(NCCc1cc(F)cc(Cl)c1)[C@]1(O)CCN(c2cccc(C(F)(F)F)c2)C1=O` [A220], 1000 to 10000 nM.
For the compound `O=C(NCCc1cc(F)cc(Cl)c1)[C@@]1(O)CCN(c2ccc(C(F)(F)F)cc2)C1=O` [A233], the IC50 was in the range of 10 to 1000 nM.
With `CC(C)n1cc(N2CC[C@](O)(C(=O)NCCc3cc(F)cc(Cl)c3)C2=O)cn1` [A240] the figure was 10 to 1000 nM.

The values above are taken from patent US8895535B2, “Pyrrolidinones as MetAP-2 inhibitors” (Merck Patent GmbH, priority 2010, dated 2014).
